From the NIST ThermoML archive (doi:10.1021/je060228n)

Experiments:
[1] = refractive index (Na D-line) (dimensionless); xn = mol fraction of the nth substance listed; details: 298.15 K, 101 kPa, Liquid
[2] = xn = mol fraction of the nth substance listed; details: 101 kPa, Liquid
[3] = refractive index (Na D-line) (dimensionless); details: 101.33 kPa, Liquid
[4] = for mass density / speed of sound / viscosity: Liquid; for surface tension liquid-gas: Drop weight

O [water] + CCOS(=O)(=O)[O-].CCn1cc[n+](C)c1
Details | refractive index
[1], x1 = 1 | 1.33251

[2], x1 = 1
Details | mass density [kg/m3] | speed of sound [m/s] | viscosity [mPa·s]
298.15 K | – | – | 0.89
313.15 K | – | – | 0.653
328.15 K | 985.7 | 1545.4 | 0.504

CCOS(=O)(=O)[O-].CCn1cc[n+](C)c1 [1-ethyl-3-methylimidazolium ethyl sulfate] + CCO
[1]
Details | refractive index
x2 = 0 | 1.4794
x2 = 0.0623 | 1.47717
x2 = 0.23 | 1.47031
x2 = 0.4113 | 1.46017
x2 = 0.5393 | 1.45018
x2 = 0.6788 | 1.43532
x2 = 0.7662 | 1.42247
x2 = 0.8303 | 1.41052
x2 = 0.9554 | 1.37687
x2 = 0.964 | 1.37373
x2 = 0.9863 | 1.36514

[2]
Details | mass density, 298.15 K [kg/m3] | mass density, 313.15 K [kg/m3] | mass density, 328.15 K [kg/m3] | speed of sound, 298.15 K [m/s] | speed of sound, 313.15 K [m/s] | speed of sound, 328.15 K [m/s] | viscosity, 298.15 K [mPa·s] | viscosity, 313.15 K [mPa·s] | viscosity, 328.15 K [mPa·s]
x2 = 0 | 1237.63 | 1227.51 | 1217.47 | 1679 | 1641.6 | 1604.5 | 97.58 | 50.01 | 29.18
x2 = 0.0623 | 1228.9 | 1218.87 | 1208.77 | 1669.8 | 1633.6 | 1594.8 | 79.12 | 42.18 | 25.36
x2 = 0.23 | 1201.26 | 1191.17 | 1181.01 | 1626.6 | 1590.1 | 1551 | 44.93 | 26.19 | 16.84
x2 = 0.4113 | 1161.68 | 1151.32 | 1140.94 | 1564 | 1527.7 | 1488.2 | 22.96 | 14.72 | 10.14
x2 = 0.5393 | 1123.63 | 1113 | 1102.3 | 1506.5 | 1459.1 | 1431.1 | 13.58 | 8.577 | 6.204
x2 = 0.6788 | 1066.7 | 1055.7 | 1044.7 | 1428.8 | 1381 | 1350.7 | 7.224 | 5.208 | 3.934
x2 = 0.7662 | 1017.9 | 1006.6 | 995.2 | 1367.2 | 1318.9 | 1286.7 | 4.598 | 3.413 | 2.642
x2 = 0.8303 | 973 | 961.3 | 949.6 | 1315.6 | 1266.2 | 1232.2 | 3.178 | 2.398 | 1.874
x2 = 0.9554 | 848.6 | 836.2 | 823.5 | 1195.9 | 1143.3 | 1102.6 | 1.573 | 1.2 | 0.941
x2 = 0.964 | 837.4 | 824.7 | 812 | 1186.2 | 1132.7 | 1091.4 | 1.427 | 1.095 | 0.862
x2 = 0.9863 | 806.1 | 793.4 | 780.3 | 1160.7 | 1106.2 | 1063.1 | 1.271 | 0.971 | 0.759

CCO [ethanol]
Details | refractive index
[3], 298.15 K | 1.36023

[4], 101 kPa
Details | mass density [kg/m3] | speed of sound [m/s] | viscosity [mPa·s]
298.15 K | 785.46 | 1146.3 | 1.082
313.15 K | 772 | 1092.8 | 0.827
328.15 K | 758.6 | 1043.2 | 0.641

CCOS(=O)(=O)[O-].CCn1cc[n+](C)c1 [1-ethyl-3-methylimidazolium ethyl sulfate]
Details | refractive index, [3] | surface tension liquid-gas, [4] [mN/m]
288.15 K | 1.48197 | 47.91
293.15 K | 1.48072 | 47.39
298.15 K | 1.4794 | 46.96
303.15 K | 1.47803 | 46.58
308.15 K | 1.47669 | 46.23
313.15 K | 1.47535 | 45.84
318.15 K | 1.47397 | –
323.15 K | 1.47259 | –
328.15 K | 1.47124 | –
333.15 K | 1.46989 | –
338.15 K | 1.46851 | –
343.15 K | 1.46718 | –

[4], 101.33 kPa
Details | mass density [kg/m3] | speed of sound [m/s] | viscosity [mPa·s]
288.15 K | 1244.46 | 1703.9 | –
293.15 K | 1241 | 1691.4 | –
298.15 K | 1237.63 | 1679 | 97.58
303.15 K | 1234.25 | 1666.6 | 76.67
308.15 K | 1230.88 | 1654 | 61.71
313.15 K | 1227.51 | 1641.6 | 50.01
318.15 K | 1224.15 | 1629.2 | 41.37
323.15 K | 1220.8 | 1616.8 | 34.46
328.15 K | 1217.47 | 1604.5 | 29.18
333.15 K | 1214.31 | 1591.3 | 24.96
338.15 K | 1210.82 | 1578.9 | 21.45
343.15 K | 1207.51 | 1566.4 | 18.72

CCOS(=O)(=O)[O-].CCn1cc[n+](C)c1 [1-ethyl-3-methylimidazolium ethyl sulfate] + O
[1]
Details | refractive index
x2 = 0 | 1.4794
x2 = 0.0715 | 1.47827
x2 = 0.2089 | 1.476
x2 = 0.3227 | 1.47344
x2 = 0.5041 | 1.46726
x2 = 0.5975 | 1.46243
x2 = 0.7441 | 1.44916
x2 = 0.854 | 1.42825
x2 = 0.9506 | 1.38383

[2]
Details | mass density, 298.15 K [kg/m3] | mass density, 313.15 K [kg/m3] | mass density, 328.15 K [kg/m3] | speed of sound, 298.15 K [m/s] | speed of sound, 313.15 K [m/s] | speed of sound, 328.15 K [m/s] | viscosity, 298.15 K [mPa·s] | viscosity, 313.15 K [mPa·s] | viscosity, 328.15 K [mPa·s]
x2 = 0 | 1237.63 | 1227.51 | 1217.47 | 1679.1 | 1641.6 | 1604.5 | 97.58 | 50.01 | 29.18
x2 = 0.0715 | 1236.14 | 1225.97 | 1215.87 | 1687 | 1640.1 | 1617.1 | 82.01 | 43.36 | 25.8
x2 = 0.2089 | 1232.72 | 1222.53 | 1212.4 | 1696.7 | 1660.8 | 1622.1 | 57.84 | 32.09 | 19.82
x2 = 0.3227 | 1229 | 1218.87 | 1208.82 | 1707.2 | 1671 | 1631.7 | 42.89 | 24.76 | 15.8
x2 = 0.5041 | 1220 | 1209.82 | 1199.54 | 1729 | 1692.6 | 1652.9 | 24.74 | 15.11 | 10.02
x2 = 0.5975 | 1212.9 | 1202.43 | 1192.02 | 1741.6 | 1703.9 | 1665.9 | 17.52 | 10.98 | 7.45
x2 = 0.7441 | 1192.2 | 1181.55 | 1170.8 | 1773 | 1734.5 | 1695.3 | 10.58 | 6.715 | 4.622
x2 = 0.854 | 1159.2 | 1146.19 | 1135.3 | 1792.6 | 1749.2 | 1704.3 | 5.848 | 3.818 | 2.596
x2 = 0.9506 | 1084.4 | 1076.1 | 1066.9 | 1709.2 | 1693.1 | 1668.1 | 2.316 | 1.608 | 1.189

CCO [ethanol] + CCOS(=O)(=O)[O-].CCn1cc[n+](C)c1
Details | refractive index
[1], x1 = 1 | 1.36023

[2], x1 = 1
Details | mass density [kg/m3] | speed of sound [m/s] | viscosity [mPa·s]
298.15 K | 785.46 | 1146.3 | 1.082
313.15 K | 772 | 1092.8 | 0.827
328.15 K | 758.6 | 1043.2 | 0.641
